US6472526B1, “Imidazole derivatives having an inhibitory activity for farnesyl transferase and process for preparation thereof” (LG Chemical Ltd., priority 1997, dated 2002)

Experiments:
[1] = target: T1, Ras farnesyl transferase (Homo sapiens, UniProt P49354+P49356); test: In vitro inhibitory activity for Ras farnesyl transferase, K-Ras substrate; format: biochemical; settings: in vitro farnesyl transferase assay, K-Ras; read-out: K-Ras IC50
T1 construct: made in house

[2] = target: T1, Ras farnesyl transferase; test: In vitro inhibitory activity for Ras farnesyl transferase, H-Ras substrate; format: biochemical; settings: recombinant farnesyl transferase 4.5 nM, Ras substrate protein 1.5 μM, tritium-farnesylpyrophosphate 0.15 μM, 30 minutes at 37° C.; read-out: H-Ras IC50
Protocol: In the present experiment, Ras farnesyl transferase produced by genetic recombination techniques according to the improved Pompliano's method (Pompliano et al., Biochemistry, 1992, 31, 3800) was used, and Ras substrate (Ras-CVLS) protein described in Korean Patent Appln. No. 97-14409 was used after it has been purified according to the known method (see, Chung et al., Biochimica et Biophysica Acta, 1992, 278, 1129).
The enzyme reaction was performed in 50 μl of 50 mM Sodium HEPES buffer solution containing 25 mM of potassium chloride, 25 mM of magnesium chloride, 10 mM of DTT and 50 μM of zinc chloride. 1.5 μM of Ras substrate protein, 0.15 μM of tritium-farnesylpyrophosphate and 4.5 nM of farnesyl transferase were used.
More specifically, in the initial step, farnesyl transferase was added to the above buffer solution, reaction was maintained for 30 minutes at 37° C. and then the reaction was stopped by adding 1 ml of ethanol solution containing 1M HCl. The formed precipitates were adsorbed to GF/B filter using Hopper harvestor(Hopper #FH 225V) for filter-binding, washed with ethanol, and then radioactivity of the dried filter was measured using LKB β counter. Enzyme titer was measured in the unsaturated state of substrate where the concentrations of Ras substrate protein and farnesyl transferase have quantitative relationship. The compound according to the present invention dissolved in dimethyl sulfoxide (DMSO) was added to the reaction solution in an amount of less than 5% of the total reaction solution, and then the enzyme inhibitory activity thereof was measured. The enzyme inhibitory activity was represented by percentage of the amount of farnesyl incorporated into the Ras substrate protein in the presence of the test compound to that in the absence of the test compound. IC50 of the test compound was defined as the concentration at which 50% of the enzyme activity was inhibited.

[3] = target: T2, Ras farnesyl transferase (Rattus norvegicus, UniProt Q02293+Q04631); test: In vivo (cellular) inhibitory activity for Ras farnesyl transferase, Rat2 cell line which expresses C-Harvey-Ras protein; format: cell-based; settings: Rat2 cell line expressing C-Harvey-Ras; concentration inhibiting 50% of farnesyl bonding of Ras protein; read-out: H-Ras CIC50
T2 construct: endogenous in cells; host or cells: Rat2 fibroblasts transformed with H-Ras or with an H-Ras/K-Ras C-terminus fusion
Protocol: (§1) In the present experiment, Rat2 cell line which expresses C-Harvey-Ras protein having transforming activity and Rat2 cell line (Korean patent application No. 97-14409) which is transformed with fused protein of H-Ras substituted with polybasic lysine domain at C-terminus of K-Ras were used. The experiment was performed by the modified Declue's method (Declue. J. E. et al., Cancer Research, 1991, 51, 712). Hereinafter, the experimental method will be described in more detail.
(§2) 3×10^5 cells of transformed Rat2 fibroblast cell line were sprayed on 60 mm cell cultivation dish and cultivated for 48 hours in a cell incubator at 37° C. and after 50% or more of density was reached, it was treated with the test compounds. The compound according to the present invention dissolved in dimethylsulfoxide (DMSO) was used. 1% concentration of dimethylsulfoxide was used in both control and test groups. After 4 hours from the treatment with the compound, methionine labeled with 150 μCi of radioactive isotope [^35S] per 1 ml of medium was added and after cultivating for 20 hours, the cells were, washed with physiological saline water. The cells were lysed using 1 ml of cold cell lysis buffer solution (50 mM of Sodium HEPES buffer solution containing 5mM of magnesium chloride, 1 mM of DTT, 1% NP 40, 1 mM of EDTA, 1 mM of PMSF, 2 μM of leupeptin, 2 μM of pepstatin A and 2 μM of antipain) and the supernatant wherein the cells were lysed was obtained by high-velocity centrifugation of 12,000 g×5 minutes. The amount of radioisotope in the supernatant was measured and standardized to obtain a quantitative result in immunoprecipitation reaction and then, Y13-259, a monoclonal antibody specifically binding to Ras protein (Furth, M. E. et al., J. Virol, 1982, 43, 294) was added and reacted for 15 hours at 4° C. Protein A(combined with goat anti-murine immunoglobulin antibody)-agarose suspension was added to the solution and reacted for 1 hour at 4° C. and then, to remove the unspecific binding product, immunoprecipitates were washed with a buffer solution (50 mM Tris chloride buffer solution containing 50 mM of sodium chloride, 0.5% of sodium dioxycolate, 0.5% of NP 40 and 0.1% of SDS). The precipitates were added to a buffer solution for electrophoresis and boiled and then, electrophoresis was performed using 13.5% of SDS polyacrylamide gel. After electrophoresis, the gel was fixed and dried. Then, the gel was exposed to X-ray film, developed printed. From the result of the experiment, intensities of band of in combined with or without farnesyl of Ras protein were measured, the concentration of the test compound inhibiting 50% of farnesyl bonding was defined as […], an in vivo Ras farnesyl transferase inhibitory activity.

[4] = target: T2, Ras farnesyl transferase; test: In vivo (cellular) inhibitory activity for Ras farnesyl transferase, Rat2 cell line transformed with fused protein of H-Ras substituted with polybasic lysine domain at C-terminus of K-Ras; format: cell-based; settings: Rat2 cell line transformed with H-Ras fused with polybasic lysine domain of K-Ras C-terminus; concentration inhibiting 50% of farnesyl bonding; read-out: K-Ras CIC50
Protocol: as §1, §2

| IC50 [1] | IC50 [2] | IC50 [3] | IC50 [4] | Compound |
| --- | --- | --- | --- | --- |
| 10000 nM | 90 nM |  |  | O=C(c1nc(Cc2cncn2Cc2ccc(Cl)cc2)sc1-c1cccc2ccccc12)N1CCOCC1 [Compound 146, 2-[1-(4-Chlorobenzyl)-1H-imidazol-5-ylmethyl]-4-(morpholin-4-yl)carbonyl-5-(naphthalen-1-yl)thiazole] |
| 70 nM | 23 nM | 100 nM |  | COCCN(C)C(=O)c1cn(Cc2cncn2CC2CCN(C(=O)OCc3ccccc3)CC2)nc1-c1cccc2ccccc12 [Compound 152, 1-[1-(1-Benzyloxycarbonyl-piperidin-4-ylmethyl)-1H-imidazol-5-ylmethyl]-4-[N-(2-methoxyethyl)-N-methyl]carbamoyl-3-(naphthalen-1-yl)-1H-pyrazole] |
| 30 nM | 2 nM | 50 nM |  | COCCN(C)C(=O)c1nc(Cc2cncn2Cc2ccc(Cl)cc2)sc1-c1cccc2ccccc12 [Compound 147, 2-[1-(4-Chlorobenzyl)-1H-imidazol-5-ylmethyl]-4-[N-(2-methoxy)ethyl-N-methylcarbamoyl]-5-(naphthalen-1-yl)thiazole] |
|  |  |  | < 20000 nM | COCCN(C)C(=O)c1cn(Cc2cncn2CCC(C)C)cc1-c1cccc2ccccc12 [Compound 120] |
| 100 nM | 30 nM | 150 nM |  | COCCN(C)C(=O)c1cn(Cc2cncn2CC2CCN(C(=O)OC)CC2)nc1-c1cccc2ccccc12 [Compound 153, 1-[1-(1-Methoxycarbonylpiperidin-4-ylmethyl)-1H-imidazole-5-ylmethyl]-4-[N-(2-methoxyethyl)-N-methyl]-carbamoyl-3-(naphthalen-1-yl)-1H-pyrazole] |
| > 50000 nM | 4600 nM |  | > 50000 nM | COCCN(C)C(=O)c1sc(Cc2cncn2CC2CCN(C(=O)OCc3ccccc3)CC2)nc1-c1cccc2ccccc12 [Compound 151] |
| 2000 nM | 250 nM |  |  | N#Cc1ccc(Cn2cncc2Cn2cc(C(=O)N3CCOCC3)c(-c3cccc4ccccc34)n2)cc1 [Compound 162, 1-[1-(4-Cyanobenzyl)-1H-imidazol-5-ylmethyl]-4-(morpholin-4-yl)carbonyl-3-(naphthalen-1-yl)-1H-pyrazole] |
|  |  |  | < 20000 nM | COCCN(C)C(=O)c1cn(Cc2cncn2CCCOC(C)C)cc1-c1cccc2ccccc12 [Compound 124, 1-[1-(3-Isopropoxypropyl)-1H-imidazol-5-yl]methyl-3-[N-(2-methoxyethyl)-N-methyl]carbamoyl-4(naphthalen-1-yl)-1H-pyrrole] |
| 3.5 nM | 1.1 nM | 25 nM |  | COCCN(C)C(=O)c1cn(Cc2cncn2Cc2ccc3c(c2)OCO3)cc1-c1cccc2ccccc12 [Compound 1, 3-[N-(2-Methoxyethyl)-N-methyl]carbamoyl-1-[1-(3,4-methylenedioxybenzyl)-1H-imidazol-5-ylmethyl]-4-(naphthalen-1-yl)-1H-pyrrole] |
| 2000 nM | 250 nM |  | 30000 nM | O=C(OCc1ccccc1)N1CCC(Cn2cncc2Cn2cc(C(=O)N3CCOCC3)c(-c3cccc4ccccc34)n2)CC1 [Compound 158, 1-[1-(1-Benzyloxycarbonyl-piperidin-4-ylmethyl)-1H-imidazol-5-ylmethyl]-4-(morpholin-4-yl)carbonyl-3-(naphthalen-1-yl)-1H-pyrazole] |
|  |  |  | < 40000 nM | COCCN(C)C(=O)c1cn(Cc2cncn2CCOC)cc1-c1cccc2ccccc12 [Compound 121, 1-[1-(2-Methoxyethyl)-1H-imidazol-5-yl]methyl-3-[N-(2-methoxyethyl)-N-methyl]carbamoyl-4-(naphthalen-1-yl)-1H-pyrrole] |
| 100 to 10000 nM | 14 nM |  | 10000 to 100000 nM | CN1CCN(C(=O)c2cn(Cc3c[nH]cn3)cc2-c2cccc3ccccc23)CC1 [Compound 89] |
| 4000 nM | 300 nM | 1200 nM |  | COC(=O)N1CCC(Cn2cncc2Cn2cc(C(=O)N3CCOCC3)c(-c3cccc4ccccc34)n2)CC1 [Compound 159] |
| 2000 nM | 200 nM |  |  | O=C(c1cn(Cc2cncn2Cc2ccc(Cl)cc2)nc1-c1cccc2ccccc12)N1CCOCC1 [Compound 161, 1-[1-(4-Chlorobenzyl)-1H-imidazol-5-ylmethyl]-4-(morpholin-4-yl)carbonyl-3-(naphthalen-1-yl)-1H-pyrazole] |
|  |  |  | < 40000 nM | CCOCCCn1cncc1Cn1cc(C(=O)N(C)CCOC)c(-c2cccc3ccccc23)c1 [Compound 123, 1-[1-(3-Ethoxypropyl)-1H-imidazol-5-yl]methyl-3-[N-(2-methoxyethyl)-N-methyl]carbamoyl-4-(naphthalen-1-yl)-1H-pyrrole] |
| 160 nM | 5 nM | 200 nM |  | N#Cc1ccc(Cn2cncc2Cn2cc(C(=O)c3ccccc3)c(-c3cccc4ccccc34)c2)cc1 [Compound 75] |
| > 50000 nM | 5000 nM |  | > 50000 nM | O=C(c1sc(Cc2cncn2Cc2ccc(Cl)cc2)nc1-c1cccc2ccccc12)N1CCOCC1 [Compound 149, 2-[1-(4-Chlorobenzyl)-1H-imidazol-5-ylmethyl]-5-(morpholin-4-yl)carbonyl-4-(naphthalen-1-yl)thiazole] |
| 10000 nM | 150 nM |  | > 50000 nM | Cn1cncc1Cn1cc(C(=O)N2CCOCC2)c(-c2cccc3ccccc23)n1 [Compound 163, 1-(1-Methyl-1H-imidazol-5-ylmethyl)-4-(morpholin-4-yl)carbonyl-3-(naphthalen-1-yl)-1H-pyrazole] |
|  | 380 nM |  | > 50000 nM | CCOC(=O)c1nc(Cc2cnc[nH]2)sc1-c1cccc2ccccc12 [Compound 144, 4-Ethoxycarbonyl-2-(1H-imidazol-5-ylmethyl)-5-(naphthalen-1-yl)thiazole] |
|  |  |  | < 30000 nM | COCCCn1cncc1Cn1cc(C(=O)N(C)CCOC)c(-c2cccc3ccccc23)c1 [Compound 122] |

| Compound | IC50 [1] | IC50 [2] | IC50 [3] | IC50 [4] |
| --- | --- | --- | --- | --- |
| 3-[N-(2-Methoxyethyl)N-methyl]carbamoyl-4-(naphthalen-1-yl)-1-(1-pentyl-1H-imidazol-5-yl)methyl-1H-pyrrole [Compound 117] |  |  |  | < 50000 nM |
| 3-[N-(2-Methoxyethyl)-N-methyl]carbamoyl-4-(naphthalen-1-yl)-1-(1-octyl-1H-imidazol-5-yl)methyl-1H-pyrrole [Compound 118] |  |  |  | < 40000 nM |
| 1-(1-Decyl-1H-imidazol-5-yl)methyl-3-[N-(2-methoxyethyl)-N-methyl]carbamoyl-4-(naphthalen-1-yl-1H-pyrrole [Compound 119] |  |  |  | < 30000 nM |
